Assay: excess molar enthalpy (molar enthalpy of mixing); xn = mol fraction of the nth substance listed
Conditions: Liquid, Flow calorimetry

CC(=O)CC(C)=O [2,4-pentanedione] + CC(C)O
excess molar enthalpy [kcal/mol]
Conditions | 298.15 K | 313.15 K | 328.15 K
100 kPa, x1 = 0.0503 | 0.0985 | 0.101 | 0.103
100 kPa, x1 = 0.1501 | 0.235 | 0.247 | 0.262
100 kPa, x1 = 0.2502 | 0.321 | 0.344 | 0.365
100 kPa, x1 = 0.3499 | 0.374 | 0.403 | 0.43
100 kPa, x1 = 0.3997 | 0.39 | 0.421 | 0.448
100 kPa, x1 = 0.4498 | 0.401 | 0.432 | 0.459
100 kPa, x1 = 0.5001 | 0.405 | 0.436 | 0.462
100 kPa, x1 = 0.5507 | 0.403 | 0.432 | 0.457
100 kPa, x1 = 0.6 | 0.395 | 0.42 | 0.444
100 kPa, x1 = 0.6493 | 0.38 | 0.402 | 0.422
100 kPa, x1 = 0.7 | 0.356 | 0.376 | 0.393
100 kPa, x1 = 0.7999 | 0.285 | 0.296 | 0.305
100 kPa, x1 = 0.8503 | 0.234 | 0.238 | 0.246
100 kPa, x1 = 0.9504 | 0.0914 | 0.0934 | 0.0939
10000 kPa, x1 = 0.0502 | 0.0928 | 0.0986 | 0.103
10000 kPa, x1 = 0.1497 | 0.224 | 0.245 | 0.258
10000 kPa, x1 = 0.2496 | 0.312 | 0.341 | 0.362
10000 kPa, x1 = 0.3492 | 0.367 | 0.402 | 0.426
10000 kPa, x1 = 0.3989 | 0.384 | 0.42 | 0.445
10000 kPa, x1 = 0.449 | 0.395 | 0.431 | 0.456
10000 kPa, x1 = 0.4993 | 0.4 | 0.435 | 0.46
10000 kPa, x1 = 0.5498 | 0.399 | 0.431 | 0.455
10000 kPa, x1 = 0.5992 | 0.391 | 0.42 | 0.443
10000 kPa, x1 = 0.6486 | 0.376 | 0.401 | 0.422
10000 kPa, x1 = 0.6994 | 0.354 | 0.374 | 0.392
10000 kPa, x1 = 0.7993 | 0.284 | 0.294 | 0.304
10000 kPa, x1 = 0.8499 | 0.234 | 0.238 | 0.244
10000 kPa, x1 = 0.9503 | 0.0908 | 0.0922 | 0.0924

CC(=O)CC(C)=O [2,4-pentanedione] + CCCO
excess molar enthalpy [kcal/mol]
Conditions | 298.15 K | 313.15 K | 328.15 K
100 kPa, x1 = 0.0502 | 0.0721 | 0.0788 | 0.0869
100 kPa, x1 = 0.1502 | 0.184 | 0.205 | 0.224
100 kPa, x1 = 0.2502 | 0.259 | 0.289 | 0.321
100 kPa, x1 = 0.3504 | 0.311 | 0.347 | 0.385
100 kPa, x1 = 0.4001 | 0.327 | 0.364 | 0.404
100 kPa, x1 = 0.4502 | 0.338 | 0.374 | 0.416
100 kPa, x1 = 0.5006 | 0.344 | 0.38 | 0.421
100 kPa, x1 = 0.5501 | 0.344 | 0.378 | 0.419
100 kPa, x1 = 0.5997 | 0.339 | 0.371 | 0.41
100 kPa, x1 = 0.6495 | 0.327 | 0.355 | 0.392
100 kPa, x1 = 0.6994 | 0.309 | 0.333 | 0.366
100 kPa, x1 = 0.8006 | 0.248 | 0.261 | 0.286
100 kPa, x1 = 0.8504 | 0.202 | 0.211 | 0.233
100 kPa, x1 = 0.9493 | 0.0794 | 0.0835 | 0.0913
10000 kPa, x1 = 0.0502 | 0.0712 | 0.0775 | 0.0866
10000 kPa, x1 = 0.1504 | 0.181 | 0.201 | 0.222
10000 kPa, x1 = 0.2504 | 0.258 | 0.285 | 0.317
10000 kPa, x1 = 0.3507 | 0.309 | 0.343 | 0.379
10000 kPa, x1 = 0.4004 | 0.326 | 0.361 | 0.399
10000 kPa, x1 = 0.4505 | 0.338 | 0.371 | 0.413
10000 kPa, x1 = 0.501 | 0.344 | 0.375 | 0.418
10000 kPa, x1 = 0.5505 | 0.343 | 0.375 | 0.415
10000 kPa, x1 = 0.6001 | 0.339 | 0.367 | 0.405
10000 kPa, x1 = 0.6499 | 0.326 | 0.352 | 0.387
10000 kPa, x1 = 0.6997 | 0.308 | 0.329 | 0.36
10000 kPa, x1 = 0.8009 | 0.246 | 0.257 | 0.282
10000 kPa, x1 = 0.8506 | 0.201 | 0.207 | 0.228
10000 kPa, x1 = 0.9494 | 0.0791 | 0.0806 | 0.0894

CC(=O)CC(C)=O [2,4-pentanedione] + CCO
excess molar enthalpy [kcal/mol]
Conditions | 298.15 K | 313.15 K | 328.15 K
100 kPa, x1 = 0.0496 | 0.0592 | 0.0668 | 0.0752
100 kPa, x1 = 0.0992 | 0.109 | 0.124 | 0.142
100 kPa, x1 = 0.1496 | 0.156 | 0.175 | 0.2
100 kPa, x1 = 0.1992 | 0.193 | 0.219 | 0.25
100 kPa, x1 = 0.2491 | 0.225 | 0.255 | 0.29
100 kPa, x1 = 0.2988 | 0.251 | 0.283 | 0.324
100 kPa, x1 = 0.3482 | 0.273 | 0.309 | 0.353
100 kPa, x1 = 0.3988 | 0.29 | 0.327 | 0.373
100 kPa, x1 = 0.4484 | 0.301 | 0.34 | 0.387
100 kPa, x1 = 0.4988 | 0.309 | 0.348 | 0.395
100 kPa, x1 = 0.5476 | 0.312 | 0.349 | 0.396
100 kPa, x1 = 0.5991 | 0.309 | 0.345 | 0.39
100 kPa, x1 = 0.6484 | 0.3 | 0.334 | 0.377
100 kPa, x1 = 0.6976 | 0.286 | 0.316 | 0.355
100 kPa, x1 = 0.7494 | 0.264 | 0.29 | 0.324
100 kPa, x1 = 0.798 | 0.236 | 0.256 | 0.284
100 kPa, x1 = 0.849 | 0.196 | 0.211 | 0.233
100 kPa, x1 = 0.8992 | 0.146 | 0.154 | 0.169
100 kPa, x1 = 0.9485 | 0.0824 | 0.0848 | 0.0934
100 kPa, x1 = 0.9688 | 0.0518 | 0.0529 | 0.0585
10000 kPa, x1 = 0.0496 | 0.0575 | 0.0658 | 0.0749
10000 kPa, x1 = 0.0992 | 0.109 | 0.124 | 0.139
10000 kPa, x1 = 0.1496 | 0.153 | 0.174 | 0.198
10000 kPa, x1 = 0.1992 | 0.191 | 0.216 | 0.246
10000 kPa, x1 = 0.2491 | 0.223 | 0.253 | 0.287
10000 kPa, x1 = 0.2988 | 0.249 | 0.282 | 0.321
10000 kPa, x1 = 0.3482 | 0.27 | 0.306 | 0.348
10000 kPa, x1 = 0.3988 | 0.287 | 0.325 | 0.369
10000 kPa, x1 = 0.4484 | 0.299 | 0.338 | 0.382
10000 kPa, x1 = 0.4988 | 0.307 | 0.345 | 0.391
10000 kPa, x1 = 0.5476 | 0.309 | 0.347 | 0.391
10000 kPa, x1 = 0.5991 | 0.306 | 0.342 | 0.384
10000 kPa, x1 = 0.6484 | 0.298 | 0.332 | 0.371
10000 kPa, x1 = 0.6976 | 0.284 | 0.315 | 0.351
10000 kPa, x1 = 0.7494 | 0.262 | 0.289 | 0.317
10000 kPa, x1 = 0.798 | 0.234 | 0.256 | 0.276
10000 kPa, x1 = 0.849 | 0.195 | 0.211 | 0.224
10000 kPa, x1 = 0.8992 | 0.143 | 0.153 | 0.163
10000 kPa, x1 = 0.9485 | 0.0813 | 0.084 | 0.0911
10000 kPa, x1 = 0.9688 | 0.0514 | 0.0524 | 0.0568

CC(=O)CC(C)=O [2,4-pentanedione] + CO
excess molar enthalpy [kcal/mol]
Conditions | 298.15 K | 313.15 K | 328.15 K
100 kPa, x1 = 0.0502 | 0.0494 | 0.0583 | 0.0658
100 kPa, x1 = 0.0995 | 0.0896 | 0.107 | 0.122
100 kPa, x1 = 0.1494 | 0.125 | 0.15 | 0.172
100 kPa, x1 = 0.1998 | 0.154 | 0.187 | 0.215
100 kPa, x1 = 0.2496 | 0.178 | 0.217 | 0.251
100 kPa, x1 = 0.3006 | 0.199 | 0.243 | 0.282
100 kPa, x1 = 0.3504 | 0.215 | 0.263 | 0.307
100 kPa, x1 = 0.3995 | 0.227 | 0.278 | 0.325
100 kPa, x1 = 0.4492 | 0.237 | 0.289 | 0.338
100 kPa, x1 = 0.499 | 0.242 | 0.295 | 0.346
100 kPa, x1 = 0.5509 | 0.244 | 0.296 | 0.348
100 kPa, x1 = 0.5989 | 0.241 | 0.293 | 0.342
100 kPa, x1 = 0.6509 | 0.233 | 0.284 | 0.33
100 kPa, x1 = 0.7006 | 0.221 | 0.269 | 0.312
100 kPa, x1 = 0.7507 | 0.204 | 0.248 | 0.286
100 kPa, x1 = 0.8006 | 0.179 | 0.219 | 0.25
100 kPa, x1 = 0.85 | 0.147 | 0.183 | 0.205
100 kPa, x1 = 0.8983 | 0.109 | 0.136 | 0.152
100 kPa, x1 = 0.95 | 0.057 | 0.0741 | 0.0828
10000 kPa, x1 = 0.0501 | 0.0479 | 0.058 | 0.0654
10000 kPa, x1 = 0.0994 | 0.0879 | 0.107 | 0.121
10000 kPa, x1 = 0.1493 | 0.123 | 0.15 | 0.171
10000 kPa, x1 = 0.1997 | 0.152 | 0.187 | 0.214
10000 kPa, x1 = 0.2494 | 0.176 | 0.217 | 0.25
10000 kPa, x1 = 0.3004 | 0.196 | 0.243 | 0.28
10000 kPa, x1 = 0.3502 | 0.213 | 0.263 | 0.304
10000 kPa, x1 = 0.3993 | 0.225 | 0.277 | 0.323
10000 kPa, x1 = 0.449 | 0.235 | 0.289 | 0.335
10000 kPa, x1 = 0.4988 | 0.24 | 0.294 | 0.343
10000 kPa, x1 = 0.5507 | 0.242 | 0.296 | 0.345
10000 kPa, x1 = 0.5987 | 0.24 | 0.292 | 0.34
10000 kPa, x1 = 0.6507 | 0.233 | 0.283 | 0.328
10000 kPa, x1 = 0.7005 | 0.221 | 0.269 | 0.308
10000 kPa, x1 = 0.7505 | 0.204 | 0.248 | 0.282
10000 kPa, x1 = 0.8004 | 0.179 | 0.219 | 0.246
10000 kPa, x1 = 0.8498 | 0.147 | 0.182 | 0.203
10000 kPa, x1 = 0.8982 | 0.108 | 0.135 | 0.151
10000 kPa, x1 = 0.9499 | 0.0569 | 0.0725 | 0.0819

From the NIST ThermoML archive (doi:10.1021/je700492k)
